Assay results published in US20090088462A1, “Pharmaceutical Composition for Enhancing Adiponectin Production” (Daiichi Sankyo Company, Limited, priority 2005, published 2009).
Counter-ions that a name gives are not always drawn.

Tested on: adiponectin
Test: Comparative test for adiponectin production enhancing effect: plasma adiponectin concentration by radioimmunoassay
Assay type: in vivo
Conditions: female db/db mice, one week oral; Compound A 0.3 mg/kg vs B 3 mg/kg (P<0.001) and vs C 30 mg/kg (P<0.01), Tukey's multiple comparison test
Protocol: Plasma glucose levels and plasma adiponectin concentrations were compared between each of the groups respectively. The plasma adiponectin concentration was measured using a radioimmunoassay kit (Mouse Adiponectin RIA Kit, Linco Research, Inc.). Plasma was diluted by 100 times using a buffer provided with the kit, and measurement was conducted using the diluted plasma (5 μL) (final dilution rate: 2000 times). The radioactivity was measured using a gamma counter, and adiponectin concentration was calculated from the measured radioactivity (measurement unit: μg/mL).

For `COc1ccc2nc(COc3ccc(CC4SC(=O)NC4=O)cc3)n(C)c2c1` (stereo not shown) [Compound A, 5-[4-(6-Methoxy-1-methyl-1H-benzimidazol-2-ylmethoxy)benzyl]thiazolidine-2,4-dione hydrochloride], the “plasma adiponectin concentration compared with Compound B and Compound C administration groups” value was “significant increasing effect”.
